From patent US20230272357A1, “METHODS OF GENOME EDITING INCLUDING CONTROLLED OPENING OF CHROMATIN” (Wisconsin Alumni Research Foundation, priority 2021, published 2023)
“Also recorded” adds a separate entry of the source.

How the values were obtained:
Format in all cases: cell-based, human
iPSCs = test: Cell viability by Ghost Dye Red 780 flow cytometry
Experimental: Cell viability: Flow cytometry was performed using Ghost Dye™ Red 780 viability dye (Tonbo Biosciences) to determine the dose range of the TSA that can be administrated to the cells without affecting cell viability. iPSCs (15,000 per well) were cultured overnight and incubated with TSA in 96-well plates for 24 h. The next day, cells were singularized using Accutase™ (STEMCELL technologies), washed with PBS, centrifuged at 300 g for 5 minutes, and Ghost Dye™ Red 780 viability dye was added at 1:1000 concentration for 20 minutes at room temperature. Cells were then washed with PBS, spun down at 300g for 5 minutes, and resuspended in 300 μL of PBS. Cells were run on an Attune NxT™ flow cytometer (Thermo Fisher Scientific) and subsequent analysis was performed using Flowjo software (BD).
Flow cytometry and fluorescence activated cell sorting: Flow cytometry was performed on singularized iPSCs using Attune™ Nxt flow cytometer (ThermoFisher Scientific) and analyzed using the FlowJo Software. Ghost Dye™ Red 780, ATTO 550, and GFP fluorescence were detected using 780/60, 585/16, and 530/30 filters in […] positions, respectively. Gates were established by running singularized untransfected iPSCs. The percentage of viable cells was calculated as the ratio of Ghost Dye™ Red 780-cells to the total number of single cells. Transfection efficiency was calculated as the percentage of ATTO 550+ cells to the total number of viable cells on day 2 post-transfection. Gene editing efficiency was calculated as the percentage of GFP-cells to the total number of viable cells on day 6 post-transfection. For the sorting experiments, iPSCs were singularized 6 days post-transfection using Accutase™, washed with PBS+20 μM ROCK inhibitor, centrifuged at 300 g for 5 minutes. Ghost Dye™ Red 780 viability dye (Tonbo Biosciences) was then added at 1:1000 concentration for 20 minutes at room temperature. Cells were washed again with PBS+20 μM ROCK inhibitor, spun down at 300 g for 5 minutes, and resuspended in 300 μL of FACS buffer (PBS+2% BSA+20 μM ROCK inhibitor). GFP-cells were then sorted into tubes containing mTeSR1+20 μM ROCK inhibitor, and seeded onto Matrigel®-coated 6 well polystyrene plates at 100 cells/well to obtain single-cell iPSC clones.

[1] = tested on: HIST1H2BJ-GFP, AAVS1 (S8, S10), EMX1, VEGFA, TRAC (S2, S3) loci; test: Deep sequencing (NGS) of edited iPSCs at open and closed chromatin loci
Experimental: Next Generation Sequencing of genomic DNA: DNA was isolated from iPSCs by adding 50 μL of DNA QuickExtract™/well (Epicentre) following treatment by Accutase™ and centrifugation. The DNA extract solution was incubated at 65° C. for 15 min, 68° C. for 15 min, and finally 98° C. for 10 min. Genomic PCR was performed according to the manufacturer's instructions using Q5 Hot Start polymerase (NEB). Sequencing indices were added with a second round of PCR using indexing primers (IDT), followed by a purification using AMPure XP magnetic bead purification kit (Beckman Coulter). Samples were pooled and sequenced on an Illumina® MiniSeq at a run length of 1×150 bp or 2×150 bp according to the manufacturer's instructions. Analysis was performed using CRISPR RGEN.
Multiple gRNA sequences targeting different sites of open (HIST1H2BJ and AAVS1) and closed chromatin (TRAC, VEGFA, EMX1) were selected to investigate if the observed TSA-induced increase in gene-editing efficiency at HIST1H2BJ-GFP locus is specific to the gRNA sequence or the chromatin state of the target locus. To gain a more detailed analysis of gene-edited events in iPSCs, deep sequencing was performed on edited cells obtained after TSA treatment. The genomic DNA was harvested on day 6 after Cas9 RNP delivery. PCR using primers flanking the gRNA target sites was then performed and prepared for next-generation sequencing (NGS) using the Illumina® MiniSeq™ system. […] Corroborating with this observation, we noted an increase in the local chromatin accessibility at the on-target sites upon TSA treatment (Data not shown). […] The highest frequency of indels was found three to four nucleotides upstream from the protospacer adjacent motif (PAM) sequence, consistent with reports of type II CRISPR systems (FIG. 2C,E). Furthermore, edited reads contained higher deletion events (approximately 50-80%) than insertion events (approximately 5-20%). Similar observations were reported in deep sequencing analysis of human cells edited by S. Pyogenes Cas9 (SpyCas9). The percentage of edited reads with Single Nucleotide Polymorphisms (SNPs) decreased upon chromatin decondensation via TSA treatment (FIG. 2F), while the relative distribution of SNPs around the cut site remained similar (data not shown). This is consistent with reports that indicate nucleosomes are enriched in SNPs.

edited iPSC clones = test: G-banded karyotyping of edited iPSC clones; details: 6.25 ng/mL TSA
Experimental: Karyotyping: Cells cultured for at least 5 passages were grown to 60-80% confluence and shipped for karyotype analysis to WiCell Research Institute, Madison, Wis. G-banded karyotyping was performed using standard cytogenetic protocols. Metaphase preparations were digitally captured with Applied Spectral Imaging software and hardware. For each cell line, 20 GTL-banded metaphases were counted, of which a minimum of 5 were analyzed and karyotyped. Results were reported in accordance with guidelines established by the International System for Cytogenetic Nomenclature 2016.

[2] = edited iPSCs obtained after TSA treatment, all loci
[3] = seven loci, change upon TSA treatment

**Q.** What does the source list for CC(/C=C/C(=O)NO)=C\[C@@H](C)C(=O)c1ccc(N(C)C)cc1 [TSA, Trichostatin A]?
**A.** Cell toxicity (iPSCs; 12.5 ng/mL TSA, FIG. 1E): higher cell toxicity; Cell viability (% GhostDye- cells/total cells) (iPSCs; TSA 0, 3.13, 6.25, 12.5 ng/mL, FIG. 1D): decreases; Cell viability (iPSCs; iPSCs, TSA 0-200 ng/mL, data not shown): decreased with the increase in TSA concentration; TSA concentration with considerable decrease in cell viability (iPSCs; iPSCs, TSA range 0-200 ng/mL tested): > 25 ng/mL; Deletion events in edited reads [1, 2]: 50-80%; Insertion events in edited reads [1, 2]: 5-20%; % edited reads with insertions [1, 3]: no significant change; also recorded: did not undergo significant change; % edited reads with only SNPs [1, 3]: decreased; % editing efficiency by deep sequencing ([1]; seven open and closed loci, day 6, TSA vs 0 ng/mL): increased; Karyotype abnormality in one clone (#5) (edited iPSC clones; FIG. 4E, known recurrent duplication in pluripotent stem cell cultures): interstitial duplication in the long (q) arm of chromosome 20 in five of the twenty cells examined; Karyotype of edited iPSC clones (edited iPSC clones; five clones, HIST1H2BJ-GFP locus): no genomic abnormalities in four of the five clones; also recorded: normal karyotype
